In patent publication US4595698A, “Physiologically active substance, arphamenine and production thereof” (Zaidan Hojin Biseibutsu Kagaku Kenkyu Kai, priority 1982, dated 1986):
Where two headings read alike, the source gives them in different places.

What was measured:
[1] = tested on: mice; assay: Acute toxicity tests in mice by intravenous injection; type: in vivo; details: iv. dose of 150 mg/kg
Experimental: Acute toxicity tests in mice by intravenous injection have shown that no deaths are caused by arphamenine A in an iv. dose of 250 mg/kg or by arphamenine B in an iv. dose of 150 mg/kg. […] These new compounds are therefore useful as immunopotentiators and anti-tumor immunomodulators or as adjuvants to various chemotherapeutic agents for use in the treatment of carcinomas.

[2] = tested on: cell-mediated immunity (D.T.H. response to sheep red blood cells); assay: Delayed Type Hypersensitivity (D.T.H.) to SRBC in normal mice, Test Example 1; details: for Increased thickness of footpad / T/C (%): single oral dose; for T/C (%): control = 100
Experimental: Effect of arphamenine on cell-mediated immunity in normal mice.
Effect of arphamenines A and B on the cell-mediated immunity was tested according to a known Delayed Type Hypersensitivity (D.T.H.) technique (see P. H. Lagrange, G. B. Mackaness and T. E. Miller: "J. Exp. Med.", 139, 1529~1539 (1974)) using mice immunized with sheep red blood cells (SRBC) as the antigen inoculated to the foot-pad pad of the mice.
Thus, 10^8 SRBC suspended in 0.05 ml of physiological saline was inoculated by subcutaneous injection to the one side of hind footpad of CDF1 mice (5 mice per group, female, 8-weeks old) to make immunization. At the time of this immunization, an aqueous solution containing 5 mg/kg, 0.5 mg/kg, 0.05 mg/kg or 0.005 mg/kg of arphamenine A or B was administered orally at a single dose to each test mice. 4 Days after the immunization, 10^8 SRBC in 0.05 ml of physiological saline was injected subcutaneously into the other side of the hind footpad of the test mice for elicitation of D.T.H. response. 24 Hours after the eliciting injection, the thickness (in mm) of the hind footpad having received the eliciting injection of SRBC was measured with calipers. At the same time, the thickness of the other side of footpad which had not received the eliciting injection of SRBC was also measured in each mouse.
The increase of footpad thickness (the swelling degree) was calculated by the following equation: [formula]
The effect of arphamenine on the DTH response was evaluated by the following equation: [formula]
Therefore, the assumption was here that the value for the control mice (untreated) was evaluated to be 100%.

[3] = tested on: cell-mediated immunity (D.T.H. to SRBC); assay: D.T.H. to SRBC in tumor-bearing (Sarcoma 180) mice, Test Example 2 (1); type: in vivo, CDF1 mice
Experimental: The swelling degree on the footpad in mice was evaluated in the same way as in Test Example 1, except that the CDF1 mice employed for the test previously received an intraperitoneal inoculation of 10^6 Sarcoma 180 cells, and that arphamenine A was administered intraperitoneally once daily for 4 consecutive days, including the day of inoculation of SRBC, and two days after the administration, SRBC was given to the treated mice to elicit D.T.H. response.

[4] = tested on: Ehrlich Solid Tumor; assay: Anti-tumor activity against Ehrlich Solid Tumor, Test Example 3; type: in vivo, ddY mice
Experimental: Anti-tumor activity of arphamenine against Ehrlich Solid Tumor.
3×10^6 cells of Ehrlich ascites tumor were transplanted subcutaneously into the flank of ddY mice (8-week old, female, 5 mice per group). The day of this transplantation was designated as Day 0. Then, 0.5, 0.05 or 0.005 mg/kg of the test compound dissolved in physiological saline solution was orally administered to the mice a total of 7 times on alternate days until Day 15, beginning on Day 1. On day 30, the size (shorter diameter^2 ×longer diameter/2) of tumor and the weight of tumor were measured. The results in this treated group of mice were compared with those in the control group of mice to calculate tumor inhibition rate (TIR, %) according to the following equation: [formula] where C denotes the size or weight of tumor in the control group, and T denotes the size or weight of tumor in the treated group.

[5] = target: T1, aminopeptidase B (Rattus norvegicus, UniProt O09175); assay: Inhibition of aminopeptidase B (arginine-β-naphthylamide degradation, modified Hoppusu method); type: biochemical
T1 construct: an aminopeptidase B which had been purified with DEAE-Cellulose; from tissue
T1 sequence (O09175 1-650): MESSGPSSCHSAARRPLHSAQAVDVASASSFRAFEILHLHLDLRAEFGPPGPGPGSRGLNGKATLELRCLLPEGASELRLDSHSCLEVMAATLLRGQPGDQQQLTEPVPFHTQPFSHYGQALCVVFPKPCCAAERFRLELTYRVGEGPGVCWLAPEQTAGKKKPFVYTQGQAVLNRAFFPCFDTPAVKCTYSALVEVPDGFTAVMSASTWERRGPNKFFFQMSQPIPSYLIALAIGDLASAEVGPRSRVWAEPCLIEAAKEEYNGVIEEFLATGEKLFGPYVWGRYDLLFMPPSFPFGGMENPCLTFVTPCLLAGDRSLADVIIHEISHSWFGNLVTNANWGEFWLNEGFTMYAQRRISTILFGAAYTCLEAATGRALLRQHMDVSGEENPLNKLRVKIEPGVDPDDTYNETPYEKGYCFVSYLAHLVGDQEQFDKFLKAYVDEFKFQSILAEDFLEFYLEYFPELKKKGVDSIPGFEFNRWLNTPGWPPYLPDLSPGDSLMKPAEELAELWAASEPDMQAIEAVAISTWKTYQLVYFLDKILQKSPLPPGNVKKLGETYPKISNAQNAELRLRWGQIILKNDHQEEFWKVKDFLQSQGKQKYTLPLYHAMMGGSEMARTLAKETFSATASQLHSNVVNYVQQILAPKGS
Experimental: Tracing of arphamenine which was made during the course of cultivation of the arphamenine-producing strain, as well as during the course of recovery and purification of arphamenine was conducted by determining the anti-aminopeptidase B potency of arphamenine according to the following methods.
In detail, 0.5 ml of 0.1 M tris-hydrochloride buffer solution (pH 7.0) and 0.25 ml of a solution containing an arphamenine specimen were added to 0.25 ml of a substrate solution containing 0.002 M arginine-β-naphthylamide. The mixed solution so obtained was heated at 37° C. for 3 minutes. To the heated solution was added 5 μl of a solution of an aminopeptidase B which had been purified with DEAE-Cellulose according to the enzyme-purification technique of Hoppusu et al. The resulting mixture was reacted for 30 minutes at 37° C., and the resultant reaction mixture was admixed with 1 ml of 1.0 M acetate buffer solution (pH 4.2) containing Fast Garnet GBC (o-aminoazotoluene, diazonium salt) at a concentration of 1 mg/ml and a surfactant "Tween" 20 at a concentration of 10% to stop the enzyme reaction. After allowing the resulting mixture to stand at ambient temperature for 15 minutes, absorbance (a) at 525 nm of the reaction solution was measured. On the other hand, adsorbance (b) at 525 nm of a control reaction solution obtained from the blank test using the buffer solution containing no arphamenine was measured. Percent of inhibition to the aminopeptidase B was calculated from the equation [(b-a)/b]×100.

[6] = 0.05 mg/kg orally, 7 times on alternate days, day 30

N=C(N)NCCCC(N)C(=O)CC(Cc1ccc(O)cc1)C(=O)O (stereo not drawn) [Arphamenine B]
deaths, acute toxicity [1]: no deaths
Increased thickness of footpad ([2]; Table 2, 0.005 mg/kg): 12.4 ± 1.40 × 0.1 mm
T/C (%) ([2]; Table 2, 0.005 mg/kg): 143%
Increased thickness of footpad ([2]; Table 2, 0.05 mg/kg): 14.0 ± 1.33 × 0.1 mm
T/C (%) ([2]; Table 2, 0.05 mg/kg): 161%
Increased thickness of footpad ([2]; Table 2, 0.5 mg/kg): 14.7 ± 1.74 × 0.1 mm
T/C (%) ([2]; Table 2, 0.5 mg/kg): 169%
Increased thickness of footpad ([2]; Table 2, 5 mg/kg): 13.7 ± 1.77 × 0.1 mm
T/C (%) ([2]; Table 2, 5 mg/kg): 157%
cell-mediated immunity in normal animals (in words) ([2]; normal animals): potentiate the cell-mediated immunity in normal animals
cell-mediated immunity depressed by the tumor (in words) ([3]; tumor-bearing): modulate the cell-mediated immunity depressed by the tumor
host-mediated anti-tumor effect (in words) ([4]; summary statement): exhibit a host-mediated anti-tumor effect
IC50 ([5]; crude powder after CM-Sephadex C-25, Example 3, read-out: anti-aminopeptidase B potency, IC50 (converted)): 6.84 nM
IC50 ([5]; light yellow powder after Biogel P-2, Examples 8 and 9, read-out: anti-aminopeptidase B potency (IC50) (converted)): 56.5 nM

CC(C)C[C@H](NC(=O)[C@@H](O)[C@H](N)Cc1ccccc1)C(=O)O [Bestatin, reference compound]
Increased thickness of footpad ([2]; Table 1, 0.5 mg/kg): 12.5 ± 1.24 × 0.1 mm
T/C (%) ([2]; Table 1, 0.5 mg/kg): 151%
Increased thickness of footpad ([2]; Table 2, 0.5 mg/kg): 13.0 ± 1.13 × 0.1 mm
T/C (%) ([2]; Table 2, 0.5 mg/kg): 149%
Increased thickness of footpad ([3]; Table 3, 5 mg/kg intraperitoneally once daily, 4 days): 6.0 ± 0.96 × 0.1 mm
T/C (%) ([3]; Table 3, 5 mg/kg intraperitoneally once daily, 4 days, control = 100): 133%
TIR (%), tumor size [4, 6]: 60.6%
TIR (%), tumor weight [4, 6]: 44.9%
Average weight of tumor ([4]; 0.05 mg/kg orally, 7 times on alternate days, day 30, **P < 0.05 (Ttest)): 1.47 ± 0.92 g
Average size of tumor ([4]; 0.05 mg/kg orally, 7 times on alternate days, day 30, *P < 0.1 (Ttest)): 2089 ± 1946 mm^3
